pEC50: −log10 of the molar value.

In the first experiment the test system is RSV ATCC VR-1540 (A2). Nature of the experiment: microbe, parasite or virus in culture. The format is cell-based. The following applies: human respiratory syncytial virus, HEp-2, 96 h; Hep2 cells, incubated for 4 days, CPE detected with XTT assay (absorbance 450 nm); read-out: EC50 (nmol/L) against RSV A2 strain. (In general: Formazan colour is commonly taken as a measure of viable cells.)
For `CN1CCNC(=O)COc2ccc(F)cc2C(=O)N2CCCC[C@H]2c2cc3nc(N4CCC4)cc1n3n2` [Example 2, (18aS)-13-(azetidin-1-yl)-2-fluoro-1-methyl-8,9,10,11,19,20,21,22-octahydro-18aH,24H-18,15-(metheno)pyrido[2,1-l]pyrimido[6,1-h][1,4,7,9,10,13]benzoxapentaazacyclohexadecine-7,24(6H)-dione], the pEC50 was 9.10.

For the compound `[2H]C([2H])([2H])c1ccc2c(c1)C(=O)N1CCCCC1c1cc3nc(C4CC(O)C4)cc(n3n1)N(C([2H])([2H])[2H])CCNC(=O)CO2` [Example 120, (18aS)-13-(trans-3-hydroxycyclobutyl)-2,1I-bis[trideuteriomethyl]-8,9,10,11,19,20,21,22-octahydro-18aH,24H-18,15-(metheno)pyrido[2,1-l]pyrimido[6,1-h][1,4,7,9,10,13]benzoxapentaazacyclohexadecine-7,24(6H)-dione], the pEC50 was 9.35.

For `CN1CCCS(=O)(=O)Nc2ccc(Cl)cc2C(=O)N2CCCCC2c2cc3nc(N4CCC(N)C4)cc1n3n2` [Example 312, (23aS)-18-[(3S)-3-aminopyrrolidin-1-yl]-8-chloro-16-methyl-1,3,4,13,14,15,16,23a-octahydro-2H,6H-23,20-(metheno)-12h-pyrido[2,1-k]pyrimido[6,1-g][2,1,6,8,9,12]benzothiapentaazacyclopentadecine-6,12,12(11H)-trione], the pEC50 is 8.39. Still for that read-out and setting: in the case of `CN1CCNC(=O)COc2ccc(F)cc2C(=O)N2CCCC[C@H]2c2cc3nc(CN)cc1n3n2` [Example 25, (18aS)-13-(aminomethyl)-2-fluoro-11-methyl-8,9,10,11,19,20,21,22-octahydro-18aH,24H-18,15-(metheno)pyrido[2,1-l]pyrimido[6,1-h][1,4,7,9,10,13]benzoxapentaazacyclohexadecine-7,24(6H)-dione] it was ~7.85; in that of `CN1CCCCS(=O)(=O)NC(C)(c2ccc(F)cc2)C(=O)N2CCCC[C@H]2c2cc3nc(N4CC(O)C4)cc1n3n2` (stereo partly drawn) [Example 377, (18aS)-12-(4-fluorophenyl)-3-(3-hydroxyazetidin-1-yl)-5,12-dimethyl-6,7,8,9,11,12,16,17,18,18a-decahydro-5H,15H-19,1-(metheno)-10λ^6-pyrido[1,2-e]pyrimido[1,6-i][1,2,5,8,9,11]thiapentaazacyclopentadecine-10,10,13-trione], 7.64. For the compound `CC[C@H]1c2cc3nc(NCC(C)(C)N)c(C)c(n3n2)N(C)CCCCCOc2ccccc2C(=O)N1C` [Example 234, (18S)-3-[(2-amino-2-methylpropyl)amino]-18-ethyl-4,5,17-trimethyl-5,6,7,8,9,10,17,18-octahydro-16H-19,1-(metheno)pyrimido[6,1-h][1,7,9,10,13]benzoxatetraazacyclohexadecin-16-one], the pEC50 was 8.17. Take `Cc1c(N2CCC2)nc2cc3nn2c1N(C)CCN(C)C(=O)COc1ccc(F)cc1C(=O)N1CCCC[C@@H]31` [Example 63, (18aS)-13-(azetidin-1-yl)-2-fluoro-8,11,12-trimethyl-8,9,10,11,19,20,21,22-octahydro-18aH, 24H-18,15-(metheno)pyrido[2,1-l]pyrimido[6,1-h][1,4,7,9,10,13]benzoxapentaazacyclohexadecine-7,24(6H)-dione]: the pEC50 was 8.60.

With `CC1Oc2ccc(F)cc2C(=O)N2CCCCC2c2cc3nc(N4CC(N)C4)cc(n3n2)N(C)CCNC1=O` [Example 12, (18aS)-13-(3-aminoazetidin-1-yl)-2-fluoro-6,11-dimethyl-8,9,10,11,19,20,21,22-octahydro-18aH,24H-18,15-(metheno)pyrido[2,1-l]pyrimido[6,1-h][1,4,7,9,10,13]benzoxapentaazacyclohexadecine-7,24(6H)-dione], the pEC50 is ~8.70. The same measure, in the same setting: in the case of `CC1COc2ccc(F)cc2C(=O)N2CCCCC2c2cc3nc(N4CC(N)C4)cc(n3n2)N(C)CCN1` [Example 145, (18aS)-13-(3-aminoazetidin-1-yl)-2-fluoro-7,11-dimethyl-6,7,8,9,10,11,19,20,21,22-decahydro-18aH,24H-18,15-(metheno)pyrido[2,1-l]pyrimido[6,1-h][1,4,7,9,10,13]benzoxapentaazacyclohexadecin-24-one] it was 7.76; in that of `CN1CCNCCOc2ccc(F)cc2C(=O)N2CCCC[C@H]2c2cc3nc(N4CCC4)cc1n3n2` [Example 133, (18aS)-13-(azetidin-1-yl)-2-fluoro-11-methyl-6,7,8,9,10,11,19,20,21,22-decahydro-18aH,24H-18,15-(metheno)pyrido[2,1-l]pyrimido[6,1-h][1,4,7,9,10,13]benzoxapentaazacyclohexadecin-24-one], 8.87.

The next experiment has as its system F protein D486N mutant strain of RSV A2 strain.
Test: not given
Format: cell-based, respiratory syncytial virus (RSV). The following applies: Hep2 cells, incubated for 4 days, CPE detected with XTT assay (absorbance 450 nm); read-out: EC50 (nmol/L) against F protein D486N mutant strain of RSV A2 strain.
With `CN1CCNC(=O)COc2ccc(Cl)cc2C(=O)N2CCCCC2c2cc3nc(C4CC(O)C4)cc1n3n2` [Example 112, (18aS)-2-chloro-13-(trans-3-hydroxycyclobutyl)-11-methyl-8,9,10,11,19,20,21,22-octahydro-18aH,24H-18,15-(metheno)pyrido[2,1-l]pyrimido[6,1-h][1,4,7,9,10,13]benzoxapentaazacyclohexadecine-7,24(6H)-dione], the pEC50 was 9.15. Still for that read-out and setting: in the case of `Cc1ccc2c(c1)C(=O)N1CCCCC1c1cc3nc(N4CC(O)C4)cc(n3n1)N(C)CC(C(F)(F)F)NCCO2` [Example 348, (18aS)-13-(3-hydroxyazetidin-1-yl)-2,11-dimethyl-9-(trifluoromethyl)-6,7,8,9,10,11,19,20,21,22-decahydro-18aH,24H-18,15-(metheno)pyrido[2,1-l]pyrimido[6,1-h][1,4,7,9,10,13]benzoxapentaazacyclohexadecin-24-one] it was 8.09; in that of `CN1CCNC(=O)COc2ccc(F)cc2C(=O)N2CCCC[C@H]2c2cc3nc(N4CCC4)cc1n3n2` [Example 2, (18aS)-13-(azetidin-1-yl)-2-fluoro-1-methyl-8,9,10,11,19,20,21,22-octahydro-18aH,24H-18,15-(metheno)pyrido[2,1-l]pyrimido[6,1-h][1,4,7,9,10,13]benzoxapentaazacyclohexadecine-7,24(6H)-dione], 8.51. In the case of `Cc1ccc2c(c1)C(=O)N1CCCC[C@H]1c1cc3nc(N4CC(O)C4)cc(n3n1)N(C)CCNCCO2` [Example 171, (18aS)-13-(3-hydroxyazetidin-1-yl)-2,11-dimethyl-6,7,8,9,10,11,19,20,21,22-decahydro-18aH,24H-18,15-(metheno)pyrido[2,1-l]pyrimido[6,1-h][1,4,7,9,10,13]benzoxapentaazacyclohexadecin-24-one], the pEC50 was 8.38. The same measure, in the same setting: the same measure for `[2H]C([2H])([2H])c1ccc2c(c1)C(=O)N1CCCCC1c1cc3nc(C4CC(O)C4)cc(n3n1)N(C([2H])([2H])[2H])CCNC(=O)CO2` [Example 120, (18aS)-13-(trans-3-hydroxycyclobutyl)-2,1I-bis[trideuteriomethyl]-8,9,10,11,19,20,21,22-octahydro-18aH,24H-18,15-(metheno)pyrido[2,1-l]pyrimido[6,1-h][1,4,7,9,10,13]benzoxapentaazacyclohexadecine-7,24(6H)-dione]: 9.19; for `CC1CCNC(=O)COc2ccc(Cl)cc2C(=O)N2CCCCC2c2cc3nc(C4CC4)cc1n3n2` (single isomer, unassigned) [Example 124a]: 8.14. In the case of `CN1CCCS(=O)(=O)Nc2ccc(Cl)cc2C(=O)N2CCCCC2c2cc3nc(N4CCC(N)C4)cc1n3n2` [Example 312, (23aS)-18-[(3S)-3-aminopyrrolidin-1-yl]-8-chloro-16-methyl-1,3,4,13,14,15,16,23a-octahydro-2H,6H-23,20-(metheno)-12h-pyrido[2,1-k]pyrimido[6,1-g][2,1,6,8,9,12]benzothiapentaazacyclopentadecine-6,12,12(11H)-trione], the pEC50 is 7.50. On the same count and under the same terms, the same measure for `CN1CCNC(=O)COc2ccc(Cl)cc2C(=O)N2CCCC[C@H]2c2cc3nc(N4CC(O)C4)cc1n3n2` [Example 39]: 9.06.

With `CN1CCn2ccnc2COc2ccc(Cl)cc2C(=O)N2CCCC[C@H]2c2cc3nc(N4CC(N)C4)cc1n3n2` [Example 335, (20aS)-15-(3-amninoazetidin-1-yl)-2-chloro-13-methyl-12,13,21,22,23,24-hexahydro-6H,11H, 20aH,26H-20,17-(metheno)imidazo[2,1-c]pyrido[2,1-l]pyrimido[6,1-h][1,4,7,9,10,13]benzoxapentaazacyclohexadecin-26-one], the pEC50 was 7.97.

For the compound `CN1CC(=O)NCCOc2ccc(F)cc2C(=O)N2CCCC[C@H]2c2cc3nc(N4CC(N)C4)cc1n3n2` [Example 37, (18aS)-13-(3-aminoazetidin-1-yl)-2-fluoro-1-methyl-7,8,10,11,19,20,21,22-octahydro-8aH,24H-18,15-(metheno)pyrido[2,1-l]pyrimido[6,1-h][1,4,7,9,10,13]benzoxapentaazacyclohexadecine-9,24(6H)-dione], the pEC50 is 8.00. For the compound `[2H]C([2H])([2H])c1ccc2c(c1)C(=O)N1CCCC[C@H]1c1cc3nc(N4CC(O)C4)cc(n3n1)N(C)CCNC(=O)CO2` [Example 53, (18aS)-13-(3-hydroxyazetidin-1-yl)-1-methyl-2-trideuteriomethyl-8,9,10,11,19,20,21,22-octahydro-18aH,24H-18,15-(metheno)pyrido[2,1-l]pyrimido[6,1-h][1,4,7,9,10,13]benzoxapentaazacyclohexadecine-7,24(6H)-dione], the pEC50 was 8.98. On to `CN1CCOCCOc2ccc(Cl)cc2C(=O)N2CCCC[C@H]2c2cc3nc(N4CC(N)C4)cc1n3n2` [Example 298, (18aS)-13-(3-aminoazetidin-1-yl)-2-chloro-11-methyl-6,7,10,11,19,20,21,22-octahydro-9H,18aH,24H-18,15-(metheno)pyrido[2,1-l]pyrimido[6,1-h][1,4,7,9,10,13]benzodioxatetraazacyclohexadecin-24-one], for which the pEC50 was 8.50.

For `CN1CCNC(=O)COc2ccc(F)cc2C(=O)N2CCCC[C@H]2c2cc3nc(C4CC4)cc1n3n2` [Example 90, (18aS)-13-cyclopropyl-2-fluoro-11-methyl-8,9,10,11,19,20,21,22-octahydro-18aH,24H-18,15-(metheno)pyrido[2,1-l]pyrimido[6,1-h][1,4,7,9,10,13]benzoxapentaazacyclohexadecine-7,24(6H)-dione], the pEC50 was 8.55. For the compound `Cc1ccc2c(c1)C(=O)N1CCCCC1c1cc3nc(C4CC4)cc(n3n1)C(C)CCNC(=O)CO2` (single isomer, unassigned) [Example 126a], the pEC50 was 8.69. On the same count and under the same terms, the same measure for `CN1CCNC(C(F)(F)F)COc2ccc(Cl)cc2C(=O)N2CCCCC2c2cc3nc(N4CC(N)C4)cc1n3n2` (single isomer, unassigned) [Example 339]: 8.39; for “(18aS)-13-(trans-3-hydroxycyclobutyl)-11-methyl-2-trideuteriomethyl-8,9,10,11,19,20,21,22-octahydro-18aH,24H-18,15-(metheno)pyrido[2,1-l]pyrimido[6,1-h][1,4,7,9,10,13]benzoxapentaazacyclohexadecine-7,24(6H)-dione [Example 118t]”: 9.14.

The record behind these values is US20230069963A1, “PYRAZOLO[1,5-A]PYRIMIDINE MACROCYCLIC COMPOUND” (priority 2018, published 2023).
